Key:
[1] = log P from HPLC-MS, no method note printed; format: physicochemical; conditions: method not given
[2] = logP by HPLC on a C18 phase inversion column, EEC Directive 79/831 Annex V.A8, method b) (HP1100, 5-95% acetonitrile in 1.70 min); format: physicochemical; conditions: HPLC method b)
Protocol: ^b) Note regarding the determination of the log P values and mass detection: The log P values given were determined in accordance with EEC Directive 79/831 Annex V.A8 by HPLC (High Performance Liquid Chromatography) on a phase inversion column (C18). HP1100; 50*4.6 Zorbax Eclipse Plus C18 1.8 micron; eluent A: acetonitrile (0.1% formic acid); eluent B: water (0.08% formic acid); linear gradient from 5% acetonitrile to 95% acetonitrile in 1.70 min, then 95% acetonitrile for a further 1.00 min; oven temperature 55° C.; flow: 2.0 ml/min. The mass detection is carried out via the mass detector Micromass ZQ2000 from Waters.

| SMILES | chromatographic logP [1] | logP [2] |
| --- | --- | --- |
| COC(=O)c1c(C(F)(F)F)c(-c2ccc(C(F)(F)F)cc2)nn1C [Methyl 1-methyl-4-(trifluoromethyl)-3-[4-(trifluoromethyl)phenyl]-1H-pyrazole-5-carboxylate] | 4.14 | – |
| CCOC(=O)c1c(C(F)(F)F)c(C(C)(C)O)nn1C [Ethyl 3-(2-hydroxypropan-2-yl)-1-methyl-4-(trifluoromethyl)-1H-pyrazole-5-carboxylate] | 2.33 | – |
| COC(=O)c1c(Br)c(OC(F)F)nn1C [Methyl 4-bromo-3-(difluoromethoxy)-1-methyl-1H-pyrazole-5-carboxylate] | 2.62 | – |
| COC(=O)c1cc(OCC(F)(F)F)nn1C [Methyl 1-methyl-3-(2,2,2-trifluoroethoxy)-1H-pyrazole-5-carboxylate] | 2.61 | – |
| Cn1nc(C(F)(F)C(F)(F)F)c(C(F)(F)F)c1SCc1ccccc1 [5-(Benzylsulphanyl)-1-methyl-3-(pentafluoroethyl)-4-(trifluoromethyl)-1H-pyrazole] | 5 | – |
| COC(=O)c1cc(OC(F)F)nn1C [Methyl-3-(difluoromethoxy)-1-methyl-1H-pyrazole-5-carboxylate] | 2.04 | – |
| Cn1nc(OCC(F)(F)F)cc1C(=O)O [1-Methyl-3-(2,2,2-trifluoroethoxy)-1H-pyrazole-5-carboxylic acid] | 1.65 | – |
| COC(=O)c1c(F)c(OCC(F)(F)F)nn1C [Methyl 4-fluoro-1-methyl-3-(2,2,2-trifluoroethoxy)-1H-pyrazole-5-carboxylate] | 2.79 | – |
| CCOC(=O)c1cnc(C(F)(F)C(F)(F)F)nc1C(F)(F)C(F)(F)F [Ethyl 2,4-bis(pentafluoroethyl)pyrimidine-5-carboxylate] | 4.41 | – |
| COC(=O)c1c(I)c(OC(F)F)nn1C [Methyl 3-(difluoromethoxy)-4-iodo-1-methyl-1H-pyrazole-5-carboxylate] | 2.69 | – |
| Cn1nc(-c2ccc(C(F)(F)F)cc2)c(C(F)(F)F)c1C(=O)O [1-Methyl-4-(trifluoromethyl)-3-[4-(trifluoromethyl)phenyl]-1H-pyrazole-5-carboxylic acid] | 1.24 | – |
| Cn1nc(C2CC2)c(Br)c1C(=O)O [4-Bromo-3-cyclopropyl-1-methyl-1H-pyrazole-5-carboxylic acid] | 1.76 | – |
| Cn1nc(OC(F)F)c(Cl)c1C(=O)O [4-Chloro-3-(difluoromethoxy)-1-methyl-1H-pyrazole-5-carboxylic acid] | 1.5 | – |
| Cn1nc(C(F)(F)C(F)(F)F)c(I)c1C(=O)O [1-Methyl-3-pentafluoroethyl-4-iodo-1H-pyrazole-5-carboxylic acid] | 2.33 | – |
| Cn1nc(OCC(F)(F)F)c(Br)c1C(=O)O [4-Bromo-1-methyl-3-(2,2,2-trifluoroethoxy)-1H-pyrazole-5-carboxylic acid] | 2.03 | – |
| COC(=O)c1c(Cl)c(OCC(F)(F)F)nn1C [Methyl 4-chloro-1-methyl-3-(2,2,2-trifluoroethoxy)-1H-pyrazole-5-carboxylate] | 3.08 | – |
| COC(=O)c1c(Br)c(OCC(F)(F)F)nn1C [Methyl 4-bromo-1-methyl-3-(2,2,2-trifluoroethoxy)-1H-pyrazole-5-carboxy late] | 3.14 | – |
| CCOC(=O)c1c(C(F)(F)F)c(C(C)(C)F)nn1C [Ethyl 3-(2-fluoropropan-2-yl)-1-methyl-4-(trifluoromethyl)-1H-pyrazole-5-carboxylate] | 3.55 | – |
| O=C(O)c1cnc(C(F)(F)C(F)(F)F)nc1C(F)(F)C(F)(F)F [2,4-Bis(pentafluoroethyl)pyrimidine-5-carboxylic acid] | 2.24 | – |
| Cn1nc(C(C)(C)F)c(C(F)(F)F)c1C(=O)O [3-(2-Fluoropropan-2-yl)-1-methyl-4-(trifluoromethyl)-1H-pyrazole-5-carboxylic acid] | 1.43 | – |
| Cn1nc(C(O)C2CC2)c(C(F)(F)F)c1C(=O)O (stereo not drawn) [3-[Cyclopropyl(hydroxy)methyl]-1-methyl-4-(trifluoromethyl)-1H-pyrazole-5-carboxylic acid] | 0.72 | – |

| SMILES | chromatographic logP [1] | logP [2] |
| --- | --- | --- |
| CCOC(=O)c1c(C(F)(F)F)c(C(O)C2CC2)nn1C (stereo not drawn) [Ethyl 3-[cyclopropyl(hydroxy)methyl]-1-methyl-4-(trifluoromethyl)-1H-pyrazole-5-carboxylate] | 2.38 | – |
| CCOC(=O)c1sc(C(F)(F)C(F)(F)F)nc1C(F)(F)F [Ethyl 2-(pentafluoroethyl)-4-(trifluoromethyl)-1,3-thiazole-5-carboxylate] | 4.36 | – |
| Cn1nc(OC(F)F)cc1C(=O)O [3-(Difluoromethoxy)-1-methyl-1H-pyrazole-5-carboxylic acid] | 1.15 | – |
| Cn1nc(C(F)(F)C(F)(F)F)c(C(F)(F)F)c1C(=O)Nc1ccc(Cl)c(C(=O)NCC2CC2(C)C)c1 (stereo not drawn) [Ik-46] | – | 4.11^b) |
| C=C(C)CNC(=O)c1cc(NC(=O)c2c(C(F)(F)F)c(C(F)(F)C(F)(F)F)nn2C)ccc1Cl [Ik-50] | – | 3.53^b) |
| Cn1nc(C(F)(F)C(F)(F)F)c(C(F)(F)F)c1C(=O)Nc1ccc(Cl)c(C(=O)NCC(F)(F)C(F)(F)F)c1 [Ik-302] | – | 3.78^b) |
| CC(CC(F)(F)F)NC(=O)c1cc(NC(=O)c2c(C(F)(F)F)c(C(F)(F)C(F)(F)F)nn2C)ccc1Cl (stereo not drawn) [Ik-299] | – | 3.63^b) |
| Cn1nc(C(F)(F)C(F)(F)F)c(C(F)(F)F)c1C(=O)Nc1ccc(Cl)c(C(=O)NCc2ccc(F)c(F)c2)c1 [Ik-309] | – | 3.94^b) |
| Cc1cccc(CNC(=O)c2cc(NC(=O)c3c(C(F)(F)F)c(C(F)(F)C(F)(F)F)nn3C)ccc2Cl)c1 [Ik-304] | – | 3.94^b) |
| Cn1nc(C(F)(F)C(F)(F)F)c(C(F)(F)F)c1C(=O)Nc1ccc(Cl)c(C(=O)NCc2ccc(F)cc2F)c1 [Ik-308] | – | 3.94^b) |
| C/C(Cl)=C/CNC(=O)c1cc(NC(=O)c2c(C(F)(F)F)c(C(F)(F)C(F)(F)F)nn2C)ccc1Cl [Ik-295] | – | 3.73^b) |
| CSCC(C)(C)NC(=O)c1cc(NC(=O)c2c(C(F)(F)F)c(C(F)(F)C(F)(F)F)nn2C)ccc1Cl [Ik-289] | – | 4.05^b) |
| Cc1ccccc1CNC(=O)c1cc(NC(=O)c2c(C(F)(F)F)c(C(F)(F)C(F)(F)F)nn2C)ccc1Cl [Ik-305] | – | 3.89^b) |
| CCOCCNC(=O)c1cc(NC(=O)c2c(C(F)(F)F)c(C(F)(F)C(F)(F)F)nn2C)ccc1Cl [Ik-53] | – | 3.28^b) |
| Cn1nc(C(F)(F)C(F)(F)F)c(C(F)(F)F)c1C(=O)Nc1ccc(Cl)c(C(=O)NC2CC2F)c1 (stereo not drawn) [Ik-311] | – | 3.28^b) |
| COCC(C)(C#N)NC(=O)c1cc(NC(=O)c2c(C(F)(F)F)c(C(F)(F)C(F)(F)F)nn2C)ccc1Cl (stereo not drawn) [Ik-275] | – | 3.37^b) |
| Cn1nc(C(F)(F)C(F)(F)F)c(C(F)(F)F)c1C(=O)Nc1ccc(Cl)c(C(=O)NC2CCOCC2)c1 [Ik-285] | – | 3.06^b) |
| Cn1nc(C(F)(F)C(F)(F)F)c(C(F)(F)F)c1C(=O)Nc1ccc(Cl)c(C(=O)NC(C)(C)C#N)c1 [Ik-274] | – | 3.37^b) |
| C[C@H](NC(=O)c1cc(NC(=O)c2c(C(F)(F)F)c(C(F)(F)C(F)(F)F)nn2C)ccc1Cl)C(F)(F)F [Ik-294] | – | 3.63^b) |
| Cn1nc(C(F)(F)C(F)(F)F)c(C(F)(F)F)c1C(=O)Nc1ccc(Cl)c(C(=O)NCCC(F)(F)F)c1 [Ik-291] | – | 3.53^b) |
| Cn1nc(C(F)(F)C(F)(F)F)c(C(F)(F)F)c1C(=O)Nc1ccc(Cl)c(C(=O)NCc2ccc(Cl)cc2)c1 [Ik-283] | – | 4.05^b) |

Source: patent US8946234B2, “Halogen-substituted compounds” (Bayer CropScience AG, priority 2008, dated 2015)
